Source: US20040071683A1, “Methods for treating pervasive development disorders” (priority 1999, published 2004)
No end group written: not given here.

Experiments:
[1] = system: fecal chymotrypsin; assay: Fecal Chymotrypsin Test after secretin infusion in autistic children (Experiments 1 and 2); format: in vivo
Procedure: In this experiment, 16 children diagnosed as having autism were administered the following Fecal Chymotrypsin Test in accordance with an embodiment of the invention. First, approximately 2 grams of stool were collected from each child and placed in a sterile container (although it is to be understood that any quantity of stool may be collected, as 2 grams of stool is not a required amount). Each stool sample was then analyzed using, e.g., an enzymatic photospectrometry analysis as is known by those skilled in the art, to determine the level of fecal chymotrypsin in the stool. Although the enzymatic photospectrophotometry process is preferred, any suitable conventional method may be used for measuring the fecal chymotrypsin levels. The measured chymotrypsin levels of the 16 autistic children are illustrated in FIG. 13.
After determining the chymotrypsin levels of the stools, each of these levels were compared with threshold chymotrypsin levels to determine if the child was likely to benefit from secretin administration. By way of example, with the fecal chymotrypsin tests of the stool samples being performed at 30° C., normal levels of chymotrypsin are deemed to lie above 8.4 U/gram, whereas pathologically abnormal levels are deemed to lie below 4.2 U/gram. In addition, chymotrypsin levels between 8.4 U/gram and 4.2 U/gram are considered equivocal, and further testing of the individual's fecal chymotrypsin levels over a period of time should be performed.
(§1) For each of the 16 autistic children tested, a preferred secretin infusion process according to the present invention was performed involving the administering of 1 U/kg of body weight of Secretin-Ferring for a period of nine months at intervals of approximately 6 weeks. In addition, another CARS test was administered to each of the 16 autistic children 3 weeks post secretin administration to determine if their autism had changed post infusion.
A preferred secretin infusion process includes the initial step of prepping an arm of the candidate child with an IV injection of saline. A test dose of 1U of Secretin-Ferring is then administered to the child. Approximately one minute after infusion, the child is examined for signs of allergic reaction including rash, increased heart rate, and increase of blood pressure. […] Subsequently, each child receives a 1 U/kg of body weight infusion of Secretin-Ferring approximately every 6 weeks for 9 months. […]
In this experiment, 37 autistic children with abnormal fecal chymotrypsin levels were administered secretin over the course of 6 months using the secretin infusion process described above. Their fecal chymotrypsin (FC) levels were measured weekly using the fecal chymotrypsin test described above.

[2] = system: children diagnosed with Autism; settings: secretin given as diagnostic procedure during upper gastrointestinal endoscopy; Horvath et al. 1998; cited from earlier work
[3] = system: autistic children; assay: CARS (Childhood Autism Rating Scale) test pre- and post-secretin administration (Experiment 1); format: in vivo; settings: 16 autistic children
Procedure: Upon determining that a given child was likely to benefit from secretin administration based on the results of the fecal chymotrypsin test, the child was administered a CARS (Childhood Autism Rating Scale) test prior to being scheduled for secretin infusion.
as §1
A preferred secretin infusion process includes the initial step of prepping an arm of the candidate child with an IV injection of saline. A test dose of 1U of Secretin-Ferring is then administered to the child. Approximately one minute after infusion, the child is examined for signs of allergic reaction including rash, increased heart rate, and increase of blood pressure. […] Subsequently, each child receives a 1 U/kg of body weight infusion of Secretin-Ferring approximately every 6 weeks for 9 months. It is to be understood that any commercially available form of secretin may be used.

## secretin (HSDGTFTSELSRLRDSARLQRLLQGLV; ends and bridges not checked; UniProt P63298 33-59, looked up) [a gastrointestinal peptide hormone]
[1]; 6 Months Post-Secretin Administration, of 37 autistic children (0 pre-secretin), equivocal between 8.4 and 4.2 U/gram
  # Autistic Children w/ Equivocal FC levels: 2
[1]; 6 Months Post-Secretin Administration, of 37 autistic children (0 pre-secretin), normal above 8.4 U/gram
  # Autistic Children w/ normal FC levels: 34
[1]; 6 Months Post-Secretin Administration, of 37 autistic children (37 abnormal pre-secretin), abnormal below 4.2 U/gram
  # Autistic Children w/ Abnormal FC levels: 1
[1]; each of 16 autistic children, approximately one week after first infusion of 1 U/kg Secretin-Ferring IV, FIG. 14 vs FIG. 13
  fecal chymotrypsin level post-secretin administration compared with pre-secretin: increased
[2]
  symptoms associated with Autism after secretin administration: ameliorating the symptoms associated with Autism
[3]; 3 weeks post infusion
  CARS fear component post-secretin: increased
[3]; 3 weeks post infusion, FIGS. 2-12
  CARS component scores post-secretin (all except fear): demonstrated improvement
[3]; approximately 3 weeks after first secretin administration, FIG. 1
  overall CARS scores post-secretin vs pre-secretin: overall decrease
